Data: patent US7968587B2, “Tetrahydrocyclopenta[b]indole compounds as androgen receptor modulators” (priority 2006, dated 2011)

Tested on: castrated (GDX) male Wistar rats
Assay: In vivo model of efficacy and selectivity (castrated rat; LA, SV wet weight, PALP activity)
Conditions: po, two weeks; for LA weight % Efficacy versus control (GDX) (ANOVA, p < 0.05): levator ani wet weight normalized to body weight; for PALP % Efficacy versus control (GDX) (ANOVA, p < 0.05): periosteal alkaline phosphatase activity, tibia; for SV weight % Efficacy verses control (sham) (ANOVA, p < 0.05): seminal vesicle wet weight normalized to body weight
Experimental: Male Wistar rats (12 weeks old) are castrated (gonadectomized or “GDX”) according to approved procedures (Charles River Labs) and allowed to waste for eight - 10 weeks. Age-matched sham-operated mice are also prepared. (Sham-operated mice are animals that have been exposed to the same surgical procedures as castrated animals except their testes are not removed.) Animals are housed in a temperature-controlled room (24° C.) with a reversed 12 hour light/dark cycle (dark 10:00/22:00) and water and food are available ad libitum.
Test compounds are administered to the animals using conventional vehicles. For example, 1% sodium carboxymethylcellulose (CMC)+0.25% Tween 80 in sterile H2O can be used for oral administration and 6% ethyl-alcohol (EtOH)+94% cyclodexitrane (CDX) can be used for subcutaneous injections. Sham operated rats treated with vehicle alone are used as a treatment positive controls whereas castrated rats treated only with vehicle are used as treatment negative control.
Test animals are dosed over a two week timeframe, orally or subcutaneously, with, for example, 0.3, 1, 3, 10 or 30 mg/kg/day of a compound of the present invention. After the two-week treatment, as an indicator of activity, the wet weight of the Levator Ani (LA) muscle in the test group is determined and compared to the wet weight of the Levator Ani from the castrated, vehicle-only control group. The wet weights of the muscle obtained in both the test group and the vehicle-only group are normalized relative to total body weight. As an indicator of tissue selective activity, the wet weight of the seminal vesicle (SV) from test animals is similarly compared to the wet weight of the seminal vesicles from the sham, vehicle-only group. Again, the wet weights of the vesicles obtained from both the test group and the vehicle-only group are normalized relative to total body weight.
In addition to the Levator Ani wet weight, the left tibia of rats are isolated during necropsy and after uncapping of the epiphysis, the soft tissue surrounding the bone is carefully removed. This sample is then placed in a solution containing 0.2% collagenase in Tris Buffer (pH 7.5). The resulting enzymatic excision of the outer periosteal layer is subjected immediately to an assay to determine alkaline phosphatase activity, an indicator of osteoblast/bone anabolic activity. Briefly, 30 μL of sample is placed in an epitube containing 200 μL of para-nitrophenyl phosphate (PNPP) substrate buffer (Pierce Cat # 37621). Purified alkaline phosphatase (Sigma Cat. # P4252) is used to make a standard curve, and the samples are read in a plate reader at Abs405 to determine periosteal alkaline phosphatase (PALP) activity. The results obtained from both the test group and the vehicle only group may be normalized relative to total body weight.
Percent Efficacy (% Eff.) values may be determined as follows: % Eff.=((Wet weight of LA or SV or PALP activity in test animal/test animal total body weight)/(Wet weight of LA or SV or PALP activity in control animal/control animal total body weight))×100.

CN(C)S(=O)(=O)N[C@@H]1Cc2c(n(Cc3cccc(F)n3)c3ccc(C#N)cc23)C1 [Example 74, (R)-N′-[7-Cyano-4-(6-fluoro-pyridin-2-ylmethyl)-1,2,3,4-tetrahydro-cyclopenta[b]indol-2-yl]-N,N-dimethylsulfamide]
LA weight % Efficacy versus control (GDX) (ANOVA, p < 0.05) (3 mg/Kg/d): 134% | PALP % Efficacy versus control (GDX) (ANOVA, p < 0.05) (3 mg/Kg/d): 95% | SV weight % Efficacy verses control (sham) (ANOVA, p < 0.05) (3 mg/Kg/d): 6% | LA weight % Efficacy versus control (GDX) (ANOVA, p < 0.05) (10 mg/Kg/d): 195% | PALP % Efficacy versus control (GDX) (ANOVA, p < 0.05) (10 mg/Kg/d): 116% | SV weight % Efficacy verses control (sham) (ANOVA, p < 0.05) (10 mg/Kg/d): 8% | LA weight % Efficacy versus control (GDX) (ANOVA, p < 0.05) (30 mg/Kg/d): 186% | PALP % Efficacy versus control (GDX) (ANOVA, p < 0.05) (30 mg/Kg/d): 107% | SV weight % Efficacy verses control (sham) (ANOVA, p < 0.05) (30 mg/Kg/d): 14%
